Source: US6087119A, “Method for determining the catalytic activity of factor IXa” (Roche Diagnostics GmbH, priority 1996, dated 2000)
Square brackets hold non-standard residues; d marks the D form. Peptide text beside a SMILES is read from it. * marks the point of attachment. pNA = O=[N+]([O-])c1ccc(N*)cc1; dNle = CCCC[C@@H](N)C(=O)O; Moc = COC(=O)*

Experiments:
rFIXa (human) = rFIXa (human) (Homo sapiens, UniProt P00740); assay: Kinetics of cleavage of chromogenic peptide substrates by rFIXa with ethylene glycol (Lineweaver Burk); type: biochemical; design: coding for the FIX protease domain from amino acid position 181 to 415; Met (ATG start codon) (N); made in house; conditions: rFIXa 0.48 μmol/l, pH 7.4
Experimental: (§1) MeSO2 -D-HHT-Gly-Arg-pNA (0.102-1.02 mmol/l)
0.48 μmol/l rFIXa (human)
MOC-D-Nle-Gly-Arg-pNA (0.102-1.02 mmol/l)
MeSO2 -D-CHG-Gly-Arg-pNA (0.102-1.02 mmol/l)
0.28 μmol/l rFIXa (human)
(§2) The kinetic constants (Kcat /Km) were determined graphically according to Lineweaver Burk (Km and Kcat cannot be determined separately since the straight lines go through the origin).

native FIXa (human) = native FIXa (human) (Homo sapiens, UniProt P00740); assay: Kinetics of cleavage of chromogenic peptide substrate by native FIXa with ethylene glycol (Lineweaver Burk); type: biochemical; design: 0.14 μmol/l native FIXa (human); conditions: native FIXa 0.29 μmol/l, pH 7.4
Experimental: as §1
0.29 μmol/l native FIXa (human)
as §2

Sequence of rFIXa (human) (P00740 227-461): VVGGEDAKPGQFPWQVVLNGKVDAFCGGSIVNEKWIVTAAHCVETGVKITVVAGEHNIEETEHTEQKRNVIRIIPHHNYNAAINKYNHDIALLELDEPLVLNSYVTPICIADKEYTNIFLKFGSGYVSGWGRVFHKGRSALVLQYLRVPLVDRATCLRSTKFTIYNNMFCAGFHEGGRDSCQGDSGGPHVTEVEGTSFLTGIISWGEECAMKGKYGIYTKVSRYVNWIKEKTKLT
Sequence of rFIXa (human) (P00740 131-226): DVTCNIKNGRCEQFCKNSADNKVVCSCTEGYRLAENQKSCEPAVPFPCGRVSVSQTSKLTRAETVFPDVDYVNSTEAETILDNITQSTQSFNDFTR
Sequence of native FIXa (human) (P00740 227-461 limits assumed): as the sequence (P00740 227-461) above
Sequence of native FIXa (human) (P00740 47-191 partner limits assumed): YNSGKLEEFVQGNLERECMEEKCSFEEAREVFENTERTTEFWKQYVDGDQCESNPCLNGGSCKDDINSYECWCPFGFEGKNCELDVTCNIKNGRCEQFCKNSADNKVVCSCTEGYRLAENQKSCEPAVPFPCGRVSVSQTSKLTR

SMILES	kkat /Km (rFIXa (human); substrate MOC-D-Nle-Gly-Arg-pNA, 16% ethylene glycol) [M⁻¹ s⁻¹]	kkat /Km (rFIXa (human); substrate MOC-D-Nle-Gly-Arg-pNA, 25% ethylene glycol) [M⁻¹ s⁻¹]	kkat /Km (rFIXa (human); substrate MOC-D-Nle-Gly-Arg-pNA, 33% ethylene glycol) [M⁻¹ s⁻¹]	kkat /Km (rFIXa (human); substrate MOC-D-Nle-Gly-Arg-pNA, 41% ethylene glycol) [M⁻¹ s⁻¹]	kkat /Km (rFIXa (human); substrate MOC-D-Nle-Gly-Arg-pNA, 50% ethylene glycol) [M⁻¹ s⁻¹]	kkat /Km (native FIXa (human); 8% ethylene glycol) [M⁻¹ s⁻¹]	kkat /Km (native FIXa (human); 16% ethylene glycol) [M⁻¹ s⁻¹]	kkat /Km (native FIXa (human); 25% ethylene glycol) [M⁻¹ s⁻¹]	kkat /Km (native FIXa (human); 33% ethylene glycol) [M⁻¹ s⁻¹]	kkat /Km (native FIXa (human); 41% ethylene glycol) [M⁻¹ s⁻¹]	kkat /Km (native FIXa (human); 50% ethylene glycol) [M⁻¹ s⁻¹]	kkat /Km (rFIXa (human); 8% ethylene glycol) [M⁻¹ s⁻¹]	kkat /Km (rFIXa (human); 16% ethylene glycol) [M⁻¹ s⁻¹]	kkat /Km (rFIXa (human); 25% ethylene glycol) [M⁻¹ s⁻¹]	kkat /Km (rFIXa (human); 33% ethylene glycol) [M⁻¹ s⁻¹]	kkat /Km (rFIXa (human); 41% ethylene glycol) [M⁻¹ s⁻¹]	kkat /Km (rFIXa (human); 50% ethylene glycol) [M⁻¹ s⁻¹]
CCCC[C@@H](NC(=O)OC)C(=O)NCC(=O)N[C@@H](CCCNC(=N)N)C(=O)Nc1ccc([N+](=O)[O-])cc1 [MOC--D--Nle--Gly--Arg--pNA, MOC-D-Nle-Gly-Arg-pNA] (Moc-[dNle]-Gly-Arg-pNA)	326	565	552	360	148												
CS(=O)(=O)N[C@H](CC1CCC(O)CC1)C(=O)NCC(=O)N[C@@H](CCCNC(=N)N)C(=O)Nc1ccc([N+](=O)[O-])cc1 (stereo partly drawn) [MeSO2 --D--HHT--Gly--Arg--pNA, MeSO2 -D-HHT-Gly-Arg-pNA]						299	737	1169	1395	922	390	348	515	1018	1018	692	172
